Data from patent US11819533B2, “Compositions and methods for the treatment of fungal infections” (Cidara Therapeutics, Inc., priority 2017, dated 2023).
Starred links: 1 amine or outer side, 2 acyl side, 3 side chain; linkers in the order of their positions; H or OH if unused. Positions of bridges follow the written chain, without caps; N, C: chain ends. Non-standard residues stand in square brackets, D forms with d. Residues, ends and D or L forms follow the SMILES beside them. *: point of attachment. Orn(4R-OH,5R-OCH2CH2NMe3+) = C[N+](C)(C)CCO[C@@H](N[*:3])[C@H](O)C[C@H](N[*:1])C(=O)[*:2]; pTerphenylCO(4''-OnC5H11) = CCCCCOc1ccc(-c2ccc(-c3ccc(C(=O)*)cc3)cc2)cc1; Orn(4R-OH,5R-OH) = O=C([C@H](C[C@@H](O)[C@@H](O)N[*:3])N[*:1])[*:2]; hTyr(3S-OH,4S-OH) = N[C@H](C(=O)O)[C@H](O)[C@@H](O)c1ccc(O)cc1; Pro(3S-OH,4S-Me) = C[C@H]1CN[C@H](C(=O)O)[C@H]1O; Hyp = O=C(O)[C@@H]1C[C@@H](O)CN1

Legend:
Candida auris = Candida auris infection in a murine model of disseminated candidiasis; type: in vivo; settings: immunosuppressed CD-1 mice; for Percent survival at the end of the study: day 14, CD101 20 mg/kg IP, fluconazole 20 mg/kg PO, amphotericin B 0.3 mg/kg IP, doses on day 1 and day 4
Description: Female 6-8 week old CD-1 mice were immunosuppressed with cyclophosphamide (200 mg/kg) 3 days prior to infection and 150 mg/kg 1 day post-infection. On the day of infection, mice were inoculated with 3×10^7 C. auris blastospores via the lateral tail vein. Mice were randomized into 5 groups (n=5 for colony forming units (CFU) and n=10 for survival): CD101 20 mg/kg administered by intraperitoneal (IP) injection, fluconazole 20 mg/kg administered per os (PO), amphotericin B 0.3 mg/kg IP, and a vehicle control. Treatments were administered 2 hours post-infection (day 1) and again on day 4 of the study for a total of 2 doses. Mice were monitored daily and a survival curve was generated. CFU groups were sacrificed on day 8 of the study. One kidney was removed from each mouse, homogenized, plated on potato dextrose agar (PDA), and incubated at 35° C. for 2 days to determine CFU. The remaining survival mice were monitored until the end of the study (day 14).

Sprague Dawley rats = assay: 14-day repeat-dose intravenous infusion toxicity study; type: in vivo
Description: The primary purpose of this study was to evaluate the toxicity of CD101 when administered intravenously as a 20-minute infusion into the lateral tail vein of Sprague Dawley rats for fourteen consecutive days. A positive control group (Eraxis®) with a similar structure and pharmacodynamic activity was included in the study design.
The test article, CD101 acetate, was a white to off-white powder. The test article was prepared into dosing formulations for intravenous dose administration. One hundred experimentally naïve Sprague Dawley rats (50 males and 50 females), a minimum of 8 weeks old and weighing 255-318 grams (males) and 192-215 (females) at the outset of the study were assigned to treatment groups as shown in Table 7 below:
All animals were dosed on Days 1 through 3 inclusive. As a result of tail vein irritation observed among all study groups, dose administration was suspended on Day 4 to allow the tails to recover. Dosing resumed on Day 5 and continued for a maximum of ten additional days (Days 5 through 14 inclusive). Animals that could no longer be dosed during this time remained on study.
Male and female Sprague Dawley rats were to receive CD101 acetate at doses of 0, 2, 6 and 20 mg/kg/day (Groups 1, 3, 4 and 5, respectively) or Eraxis® (the positive control article, Group 2) at a dose of 40 mg/kg/day, intravenously as a 20 minute infusion into the left or right lateral tail vein for fourteen consecutive days. During the first three treatment days, all animals were dosed with the first vehicle used on this study (1.75% Tween 80/5% Dextrose: Groups 1 and 3-5; 5% Dextrose: Group 2). As a result of the localized tail swelling observed during the first three days of treatment, study Day 4 served as a drug-free day to alleviate tail vein irritation. Dose administration resumed on Day 5 using a new vehicle (5% Mannitol/2.5% Tween 80/0.3% acetic acid: Groups 1 and 3-5; 5% Mannitol/0.3% acetic acid: Group 2) for the remainder of the treatment period (Days 5-14). Those animals that could no longer be dosed because of severe vein irritation were retained on study, untreated, until the end of the study (Day 15).

[1] = tested on: C. albicans SC-5314 biofilms; assay: Activity against mature phase biofilms (treatment), XTT and CSLM; type: cell-based, Candida albicans; settings: for CSLM biofilm architecture, mature phase / Metabolic activity (XTT) of mature phase biofilms compared to untreated: 24 h exposure of mature biofilms, CD101 0.25 and 1 μg/ml, fluconazole 1 and 4 μg/ml; for Thickness of biofilms, mature phase: CSLM, untreated control 43 μm
Description: (§1) C. albicans SC-5314 was used for the current study.
(§2) In this study, biofilms were grown in vitro using a biofilm model (Chandra et al., Nature Protocols 3:1909, 2008) and the effect of CD101 on adhesion phase biofilms (representing prevention of biofilms) or mature phase biofilms (representing treatment of biofilms) was determined.
(§3) Biofilms were formed on silicone elastomer (SE) discs using a catheter-associated-biofilm model (Chandra et al., Nature Protocols 3:1909, 2008; Chandra et al., J. Bacteriol. 183: 5385, 2001; Chandra et al., J. Dental Research 80: 903, 2001). For evaluation of activity against adhesion phase biofilms (prevention), Candida cells were adhered to catheter discs for 90 min. […] For evaluation of activity against mature phase biofilms (treatment), Candida cells were adhered to catheter discs for 90 min, then transferred to fresh media and incubated for a further 24 h to allow formation of biofilms. […] Discs incubated with fluconazole or media alone were used as controls in all experiments.
(§4) At the end of drug exposure in both adhesion and mature phase biofilms, biofilms were quantified by measuring their metabolic activity using XTT assay (Chandra et al., Nature Protocols 3:1909, 2008; Chandra et al., J. Bacteriol. 183: 5385, 2001; Chandra et al., J. Dental Research 80: 903, 2001). Following incubation with drugs, discs were transferred to fresh plates containing phosphate buffered saline with XTT and menadione, incubated for 3 h at 37° C. and optical density was read at 492 nm. Separate batches of biofilms were stained with fluorescent dyes (FUN1™, CONA) and observed under Confocal Scanning Laser Microscope (CSLM) to evaluate biofilm architecture and thickness (Chandra et al., Nature Protocols 3:1909, 2008; Chandra et al., J. Bacteriol. 183: 5385, 2001).

[2] = PBS drop test of CD101 IV formulations (Example 4); type: physicochemical; settings: 6 mg/mL in 1.25% Tween 80, 5% mannitol, 0.3% glacial acetic acid, pH ~4.5; 0.25 mL into 1 mL PBS
Description: Solubility of CD101-containing formulations with different percentages of Tween 80 (also referred to as polysorbate 80) was evaluated in a “PBS drop test.” This involved preparing a known concentration of CD101 in a formulation and injecting the formulation into PBS to visually examine for precipitation. This test was used to assess if a CD101-containing formulation would remain soluble in blood during IV infusions.
(1) 1.25% Tween 80, 5% mannitol, 0.3% glacial acetic acid, pH ˜4.5
(2) 0.50% Tween 80, 0.76% mannitol, 0.125% sodium lactate in 3.5% dextrose solution, pH ˜5.5
Different concentrations of CD101 acetate were prepared in vehicles (1) and (2) and tested for solubility in the PBS drop test.
Add dropwise the formulated solution into PBS solution (1:4 dilution). Visually observe the resulting solution upon addition for any precipitation.

[3] = tested on: C. albicans SC-5314 biofilms; assay: Activity against adhesion phase biofilms (prevention), XTT and CSLM; type: cell-based, Candida albicans; settings: for CSLM biofilm architecture, adhesion phase / Metabolic activity (XTT) of adhesion phase biofilms compared to untreated: 24 h exposure, CD101 0.25 and 1 μg/ml, fluconazole 1 and 4 μg/ml; for Thickness of biofilms, adhesion phase: CSLM, untreated control 36 μm
Description: as §1, §2, §3, §4

[4] = PBS buffer drop test (Example 3); type: physicochemical; settings: 0.50% Tween 80, 0.76% mannitol, 0.125% sodium lactate in 3.5% dextrose solution, pH ~5.5; 2 mg/mL, 0.47 mg/mL in PBS
Description: These solutions were tested for solubility in the PBS drop test, which involved adding the solution dropwise into PBS solution (1:4.3 dilution) and visually observing the resulting solution for any precipitation. PBS buffer serves as a surrogate for plasma, and the PBS drop test is used to evaluate the potential for insolubility as the drug enters the bloodstream at the injection site.

[5] = tested on: C. albicans SC-5314 biofilms; assay: Time lapse microscopy of biofilm formation; type: cell-based, Candida albicans; settings: followed up to 16 h
Excerpt: The effective CD101 concentration obtained from the above experiments was used to monitor its effect on biofilm formation in real time using TLM, which involves capturing real-time images of a single frame at specific time intervals, allowing temporal monitoring of the interactions occurring between the drug and Candida biofilms. Captured images were combined in a time sequence, resulting in an animation depicting the sequence of events that occurred with the passage of time. Briefly, the discs with C. albicans (adhered for 90 min as above) were placed in a 35-mm-diameter glass-bottom Petri dish (MatTek Corp., Ashland, MA). […] Phase contrast images for this interaction were captured immediately from 0 h and followed up to 16-17 h on a Leica DMI 6000 B inverted microscope connected to a Retiga EXi Aqua camera (Q-imaging Vancouver British Columbia). To determine the structural changes in the maturing biofilm, both acquisition and analysis of a series of horizontal (xy) optical sections of the biofilm was done using Metamorph Imaging software (Molecular Devices, Downington, PA). Disc incubated with media alone was used as control.

Structure (SMILES)	Percent survival at the end of the study (Candida auris)	Incidence of tail vein irritation (Sprague Dawley rats; Days 1-3, first vehicle (1.75% Tween 80 and 5% Dextrose for CD101 acetate; 5% Dextrose for Eraxis), Eraxis 40 mg/kg/day, CD101 acetate 6 and 20 mg/kg/day, males and females)	Vein irritation compared to Groups 1, 3 and 4 (Sprague Dawley rats; Days 5-14, second vehicle (5% Mannitol, 2.5% Tween 80, 0.3% Acetic Acid for CD101 acetate; 5% Mannitol and 0.3% Acetic Acid for Eraxis), Eraxis 40 mg/kg/day, CD101 acetate 20 mg/kg/day)	Animals dosed for less than the intended ten-day duration (Days 5-14) as a result of tail swelling/lesions (Sprague Dawley rats; males, 40 mg/kg/day (Group 2), 20-minute IV infusion, second vehicle 5% Mannitol/0.3% acetic acid)	Average reduction in kidney CFU compared to fluconazole, amphotericin B and vehicle treated groups (Candida auris; 20 mg/kg IP on day 1 and day 4, kidney on day 8)	CSLM biofilm architecture, mature phase [1]	Metabolic activity (XTT) of mature phase biofilms compared to untreated [1]	Thickness of biofilms, mature phase [1]	Time the formulated solution remained soluble in PBS [2]	CSLM biofilm architecture, adhesion phase [3]	Metabolic activity (XTT) of adhesion phase biofilms compared to untreated [3]	Thickness of biofilms, adhesion phase [3]	Appearance upon PBS drop test [4]	Temporal effect on 3 h formed biofilms (time lapse) ([5]; 0.25 μg/ml added after 3 h biofilm formation)	Temporal effect on formation of biofilms (time lapse) ([5]; 0.25 μg/ml added to cells adhered for 90 min)
C[C@@H]1[C@H](O)[C@@H](C)/C=C/C=C/C=C/C=C/C=C/C=C/C=C/[C@H](O[C@@H]2O[C@H](C)[C@@H](O)[C@H](N)[C@@H]2O)C[C@@H]2O[C@](O)(C[C@@H](O)C[C@@H](O)[C@H](O)CC[C@@H](O)C[C@@H](O)CC(=O)O[C@H]1C)C[C@H](O)[C@H]2C(=O)O [amphotericin B, reference compound]	30%														
CCCCCOc1ccc(-c2ccc(-c3ccc(C(=O)N[C@H]4C[C@@H](O)[C@@H](O)NC(=O)[C@@H]5[C@@H](O)[C@@H](C)CN5C(=O)[C@H]([C@@H](C)O)NC(=O)[C@H]([C@H](O)[C@@H](O)c5ccc(O)cc5)NC(=O)[C@@H]5C[C@@H](O)CN5C(=O)[C@H]([C@@H](C)O)NC4=O)cc3)cc2)cc1 [Eraxis®, Anidulafungin, reference compound] ({pTerphenylCO(4''-OnC5H11)}-[Orn(4R-OH,5R-OH)]T[Hyp][hTyr(3S-OH,4S-OH)]T[Pro(3S-OH,4S-Me)]; lactam 1-C)		highest	only marginally higher	30%											
CCCCCOc1ccc(-c2ccc(-c3ccc(C(=O)N[C@H]4C[C@@H](O)[C@@H](OCC[N+](C)(C)C)NC(=O)[C@@H]5[C@@H](O)[C@@H](C)CN5C(=O)[C@H]([C@@H](C)O)NC(=O)[C@H]([C@H](O)[C@@H](O)c5ccc(O)cc5)NC(=O)[C@@H]5C[C@@H](O)CN5C(=O)[C@H]([C@@H](C)O)NC4=O)cc3)cc2)cc1 [CD101] ({pTerphenylCO(4''-OnC5H11)}-[Orn(4R-OH,5R-OCH2CH2NMe3+)]T[Hyp][hTyr(3S-OH,4S-OH)]T[Pro(3S-OH,4S-Me)]; lactam 1-C)	80%				3 log	eradicated and showed bulged, deformed/broken cells	significantly less metabolic activity	24 μm	at least 1 hour	only remnants of adhered cells, and no biofilm maturation	formed significantly less biofilms	4 μm	Clear	remained stunted and failed to grow into mature biofilms	only adhered cells with stunted growth, which failed to grow into mature biofilms
OC(Cn1cncn1)(Cn1cncn1)c1ccc(F)cc1F [fluconazole, reference compound]	0%					did not affect Candida biofilms	neither concentrations of fluconazole (1 and 4 μg/ml) affected these biofilms	no effect		did not inhibit biofilm formation	did not inhibit biofilm formation	no effect on biofilm thickness			
